From patent publication US9850245B2 (Merck Sharp & Dohme Corp., priority 2014, dated 2017)
pIC50: −log10 of the molar value. Structures can show the parent of a compound that is named as a salt.

Target: ROMK (Homo sapiens (Human), UniProt P48048)
Experiment: Thallium Flux Assay
Type: cell-based
Protocol: A Thallium Flux Assay was performed on the compounds of the Examples. This assay has been described previously; see, e.g., PCT Published Application WO 2013/062900.

Sequence of ROMK (P48048 whole entry): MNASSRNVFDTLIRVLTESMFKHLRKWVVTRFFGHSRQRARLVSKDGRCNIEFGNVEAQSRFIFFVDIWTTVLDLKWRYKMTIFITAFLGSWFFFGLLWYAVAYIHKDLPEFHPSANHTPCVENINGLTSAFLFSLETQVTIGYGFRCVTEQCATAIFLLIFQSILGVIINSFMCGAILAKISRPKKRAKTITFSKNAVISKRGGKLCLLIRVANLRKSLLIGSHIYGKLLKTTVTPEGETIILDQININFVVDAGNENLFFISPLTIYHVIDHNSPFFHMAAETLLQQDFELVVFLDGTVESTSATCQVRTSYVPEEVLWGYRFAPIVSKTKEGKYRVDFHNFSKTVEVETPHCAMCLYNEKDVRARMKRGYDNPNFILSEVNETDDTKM

Row | pIC50 | SMILES
1 | 7.23 | Cc1c([C@@H](O)CN2CCC3(CC2)CN(C2=C(Cl)C(=O)OC2)CCO3)ccc2c1COC2=O [Example 23, (R)-5-(2-(4-(4-chloro-5-oxo-2,5-dihydrofuran-3-yl)-1-oxa-4,9-diazaspiro[5.5]undecan-9-yl)-1-hydroxyethyl)-4-methylisobenzofuran-1(3H)-one]
2 | 6.51 | CC1=C(N2CCOC3(CCN(C[C@@H](F)c4ccc5c(c4C)COC5=O)CC3)C2=O)COC1=O [Example 58, (S)-9-(2-fluoro-2-(4-methyl-1-oxo-1,3-dihydroisobenzofuran-5-yl)ethyl)-4-(4-methyl-5-oxo-2,5-dihydrofuran-3-yl)-1-oxa-4,9-diazaspiro[5.5]undecan-5-one]
3 | 7.43 | CC1=C(N2CCNC3(CCN(CC(O)c4ccc(-n5cnnn5)cc4)CC3)C2=O)COC1=O (single isomer, unassigned) [Example 5B, 9-(2-(4-(1H-tetrazol-1-yl)phenyl)-2-hydroxyethyl)-4-(4-methyl-5-oxo-2,5-dihydrofuran-3-yl)-1,4,9-triazaspiro[5.5]undecan-5-one]
4 | 6.77 | O=C1C=C(N2CCC3(CCN(C[C@H](O)c4ccc(-n5cnnn5)nc4)CC3)OC2=O)CO1 [Example 26A, (R)-9-(2-(6-(1H-tetrazol-1-yl)pyridin-3-yl)-2-hydroxyethyl)-3-(5-oxo-2,5-dihydrofuran-3-yl)-1-oxa-3,9-diazaspiro[5.5]undecan-2-one]
5 | 6.38 | CC1COC2(CCN(C[C@H](O)c3ccc(-n4cnnn4)nc3)CC2)C(=O)N1C1=CC(=O)OC1 (single isomer, unassigned) [Example 13B]
6 | 7.23 | CC1=C(N2CCOC3(CCN(C[C@H](F)c4ccc(-n5cnnn5)nc4)CC3)C2=O)COC1=O [Example 55, (R)-9-(2-(6-(1H-tetrazol-1-yl)pyridin-3-yl)-2-fluoroethyl)-4-(4-methyl-5-oxo-2,5-dihydrofuran-3-yl)-1-oxa-4,9-diazaspiro[5.5]undecan-5-one]
7 | 7.43 | CC1=C(N2CCOC3(CCN(CC(O)c4ccc(-n5cnnn5)cc4F)CC3)C2)COC1=O (single isomer, unassigned) [Example 32A, 4-(9-(2-(2-fluoro-4-(1H-tetrazol-1-yl)phenyl)-2-hydroxyethyl)-1-oxa-4,9-diazaspiro[5.5]undecan-4-yl)-3-methylfuran-2(5H)-one]
8 | 7.88 | CC1=C(N2CCOC3(CCN(CCc4ccc(-n5cnnn5)nc4)CC3)C2=O)COC1=O [Example 53, 9-(2-(6-(1H-tetrazol-1-yl)pyridin-3-yl)ethyl)-4-(4-methyl-5-oxo-2,5-dihydrofuran-3-yl)-1-oxa-4,9-diazaspiro[5.5]undecan-5-one]
9 | 7.43 | CC1=C(N2CCOC3(CCN(CC(O)c4ccc(-n5cnnn5)cn4)CC3)C2=O)COC1=O (single isomer, unassigned) [Example 43, 9-(2-(5-(1H-tetrazol-1-yl)pyridin-2-yl)-2-hydroxyethyl)-4-(4-methyl-5-oxo-2,5-dihydrofuran-3-yl)-1-oxa-4,9-diazaspiro[5.5]undecan-5-one]
10 | 6.61 | CC1=C(N2CCOC3(CCN(CC(O)c4cnc(-n5cnnn5)cn4)CC3)C2)COC1=O (single isomer, unassigned) [Example 48B, 4-(9-(2-(5-(1H-tetrazol-1-yl)pyrazin-2-yl)-2-hydroxyethyl)-1-oxa-4,9-diazaspiro[5.5]undecan-4-yl)-3-methylfuran-2(5H)-one]
11 | 6.54 | CC1=C(N2CCCOC3(CCN(C[C@H](O)c4ccc5c(c4C)COC5=O)CC3)C2=O)COC1=O [Example 37, (R)-3-(2-hydroxy-2-(4-methyl-1-oxo-1,3-dihydroisobenzofuran-5-yl)ethyl)-11-(4-methyl-5-oxo-2,5-dihydrofuran-3-yl)-7-oxa-3,11-diazaspiro[5.6]dodecan-12-one]
12 | 6.16 | CC1=C(N2CC3(CCN(C[C@H](O)c4ccc5c(c4C)COC5=O)CC3)OCC2=O)COC1=O [Example 59, (R)-9-(2-hydroxy-2-(4-methyl-1-oxo-1,3-dihydroisobenzofuran-5-yl)ethyl)-4-(4-methyl-5-oxo-2,5-dihydrofuran-3-yl)-1-oxa-4,9-diazaspiro[5.5]undecan-3-one]
13 | 6.65 | O=C1OCC(N2CCOC3(CCN(C[C@H](O)c4ccc(-n5cnnn5)nc4)CC3)C2)=C1C1CC1 [Example 28A, (R)-4-(9-(2-(6-(1H-tetrazol-1-yl)pyridin-3-yl)-2-hydroxyethyl)-1-oxa-4,9-diazaspiro[5.5]undecan-4-yl)-3-cyclopropylfuran-2(5H)-one]
14 | 6.28 | CC1=C(N2CCCOC3(CCN(CC(O)c4ccc(-n5cnnn5)nc4C)CC3)C2=O)COC1=O (single isomer, unassigned) [Example 38, 3-(2-hydroxy-2-(2-methyl-6-(1H-tetrazol-1-yl)pyridin-3-yl)ethyl)-11-(4-methyl-5-oxo-2,5-dihydrofuran-3-yl)-7-oxa-3,11-diazaspiro[5.6]dodecan-12-one]
15 | 6.81 | CC1=C(N2C(=O)C3(CCN(C[C@@H](O)c4ccc(-n5cnnn5)nc4)CC3)OCC2C)COC1=O (single isomer, unassigned) [Example 10A]
16 | 7.13 | Cc1cc(-n2cnnn2)ccc1C(O)CN1CCC2(CC1)CN(C1=CC(=O)OC1)CCO2 (single isomer, unassigned) [Example 30B, 4-(9-(2-hydroxy-2-(2-methyl-4-(1H-tetrazol-1-yl)phenyl)ethyl)-1-oxa-4,9-diazaspiro[5.5]undecan-4-yl)furan-2(5H)-one]
17 | 6.85 | CC1=C(N2CCNC3(CCN(CC(O)c4cnc(-n5cnnn5)cn4)CC3)C2=O)COC1=O (single isomer, unassigned) [Example 3B, 9-(2-(5-(1H-tetrazol-1-yl)pyrazin-2-yl)-2-hydroxyethyl)-4-(4-methyl-5-oxo-2,5-dihydrofuran-3-yl)-1,4,9-triazaspiro[5.5]undecan-5-one]
18 | 7.41 | CC1=C(N2CCOC3(CCN(CCc4cnc(-n5cnnn5)cn4)CC3)C2=O)COC1=O [Example 52, 9-(2-(5-(1H-tetrazol-1-yl)pyrazin-2-yl)ethyl)-4-(4-methyl-5-oxo-2,5-dihydrofuran-3-yl)-1-oxa-4,9-diazaspiro[5.5]undecan-5-one]
19 | 6.38 | CC1=C(N2CC(F)(F)OC3(CCN(C[C@H](O)c4ccc(-n5cnnn5)nc4)CC3)C2)COC1=O [Example 7A, (R)-4-(9-(2-(6-(1H-tetrazol-1-yl)pyridin-3-yl)-2-hydroxyethyl)-2,2-difluoro-1-oxa-4,9-diazaspiro[5.5]undecan-4-yl)-3-methylfuran-2(5H)-one]
20 | 6.16 | CC1=C(N2CC(F)(F)OC3(CCN(C[C@@H](O)c4ccc(-n5cnnn5)nc4)CC3)C2)COC1=O [Example 7B, (S)-4-(9-(2-(6-(1H-tetrazol-1-yl)pyridin-3-yl)-2-hydroxyethyl)-2,2-difluoro-1-oxa-4,9-diazaspiro[5.5]undecan-4-yl)-3-methylfuran-2(5H)-one]
21 | 7.16 | CC1=C(N2CCNC3(CCN(C[C@H](O)c4ccc5c(c4C)COC5=O)CC3)C2=O)COC1=O [Example 1, 9-[(2R)-2-hydroxy-2-(4-methyl-1-oxo-1,3-dihydro-2-benzofuran-5-yl)ethyl]-4-(4-methyl-5-oxo-2,5-dihydrofuran-3-yl)-1,4,9-triazaspiro[5.5]undecan-5-one dihydrochloride]
22 | 7.49 | CC1=C(N2CCOC3(CCN(C[C@H](O)c4ccc5c(c4C)COC5=O)CC3)CC2)COC1=O (single isomer, unassigned) [Example 41]
23 | 6.34 | CC1=C(N2CCOC3(CCN(CC(O)c4cnc(-n5cnnn5)cn4)CC3)C2)COC1=O (single isomer, unassigned) [Example 48A, 4-(9-(2-(5-(1H-tetrazol-1-yl)pyrazin-2-yl)-2-hydroxyethyl)-1-oxa-4,9-diazaspiro[5.5]undecan-4-yl)-3-methylfuran-2(5H)-one]
24 | 7.31 | CC1=C(N2CCOC3(CCN(C[C@@H](F)c4ccc(-n5cnnn5)nc4)CC3)C2=O)COC1=O [Example 56, (S)-9-(2-(6-(1H-tetrazol-1-yl)pyridin-3-yl)-2-fluoroethyl)-4-(4-methyl-5-oxo-2,5-dihydrofuran-3-yl)-1-oxa-4,9-diazaspiro[5.5]undecan-5-one]
25 | 6.55 | CC1=C(N2CCOC3(CCCN(C[C@@H](O)c4ccc(-n5cnnn5)nc4)CC3)C2=O)COC1=O (stereo partly drawn) [Example 15, 9-((S)-2-(6-(1H-tetrazol-1-yl)pyridin-3-yl)-2-hydroxyethyl)-4-(4-methyl-5-oxo-2,5-dihydrofuran-3-yl)-1-oxa-4,9-diazaspiro[5.6]dodecan-5-one]
26 | 6.32 | Cc1cc(-n2cnnn2)ccc1C(O)CN1CCC2(CC1)CN(C1=CC(=O)OC1)CCO2 (single isomer, unassigned) [Example 30A, 4-(9-(2-hydroxy-2-(2-methyl-4-(1H-tetrazol-1-yl)phenyl)ethyl)-1-oxa-4,9-diazaspiro[5.5]undecan-4-yl)furan-2(5H)-one]
27 | 7.52 | COc1cc(-n2cnnn2)ccc1C(O)CN1CCC2(CC1)CN(C1=C(C)C(=O)OC1)CCO2 (single isomer, unassigned) [Example 33A, 4-(9-(2-hydroxy-2-(2-methoxy-4-(1H-tetrazol-1-yl)phenyl)ethyl)-1-oxa-4,9-diazaspiro[5.5]undecan-4-yl)-3-methylfuran-2(5H)-one]

Row | SMILES | pIC50
28 | O=C1C=C(N2CCOC3(CC4CCC(C3)N4CCc3ccc(-n4cnnn4)nn3)C2=O)CO1 [Example 54, (1R,2′r,5S)-8-(2-(6-(1H-tetrazol-1-yl)pyridazin-3-yl)ethyl)-4′-(5-oxo-2,5-dihydrofuran-3-yl)-8-azaspiro[bicyclo[3.2.1]octane-3,2′-morpholin]-3′-one] | 8.42
29 | CC1=C(N2CCOC3(CCN(CC(O)c4cnc(-n5cnnn5)nc4)CC3)C2=O)COC1=O (single isomer, unassigned) [Example 46B, 9-(2-(2-(1H-tetrazol-1-yl)pyrimidin-5-yl)-2-hydroxyethyl)-4-(4-methyl-5-oxo-2,5-dihydrofuran-3-yl)-1-oxa-4,9-diazaspiro[5.5]undecan-5-one] | 7.24
